From patent EP4755886A1 (Chengdu Chipscreen Pharmaceutical Ltd., priority 2023, dated 2025) come the findings set out here.

Each structure is given as a SMILES string.

What is called TGI is the reduction of tumour growth relative to the control group.

The test deals with gene-editing MTAP-/- human colon cancer cell strain HCT116. Briefly: Efficacy in MTAP-/- HCT116 subcutaneous xenograft mouse model. The test is classed as in vivo, Balb/c nude mice. Conditions: 10 mg/kg, PO, qd, 28 days. On the procedure: The blank group contained 40% PEG400 normal saline with 2% DMSO. […] The test substance was intragastrically administered at 10 mg/kg once daily, and MRTX1719 was intragastrically administered at 50 mg/kg once daily. Model control: The vehicle (2% DMSO + 40% PEG400 + 58% normal saline) was intragastrically administered at a dose of 10 mL/kg once daily. Administration was performed for 28 days in total. […] The mice were euthanized on the day when the last administration was completed. […] In the formula, VTt represents the tumor volume of the treatment group at each measurement, and VT0 represents the tumor volume measured when the treatment group is grouped; VCt represents the tumor volume of the vehicle group at each measurement (same as VTt), and VC0 represents the tumor volume measured when the vehicle group is grouped. Data were analyzed using GraphPad Prism 9.0 software and expressed as Mean ± SEM (standard error). Pairwise comparisons between each administration group and the control group were performed using one-way analysis of variance (ANOVA). Variance homogeneity was determined using the Brown-Forsythe method, and variance heterogeneity was determined using the Dunnett's T3 method. Table 7. Efficacy evaluation in HCT116 subcutaneous xenograft mouse model

In turn, `CN(C(=O)c1cc2c(cc1F)nc(N)c1cnn(C)c12)[C@@H]1COc2cc(C#Cc3cnn(C)c3)ccc21` [Compound 5A, (S)-4-amino-7-fluoro-N,1-dimethyl-N-(6-((1-methyl-1H-pyrazol-4-yl)ethynyl)-2,3-dihydrobenzofuran-3-yl)-1H-pyrazolo[4,3-c]quinoline-8-carboxamide] came in with a TGI of 82.25% and a Tumor volume of 378.72 mm^3.
